# Experimental data from ChEMBL document CHEMBL3507680, “University of Dundee, Gates Library screen for HepG2 cell viability”.
# Experiment: Human HepG2 cell viability assay in 384 well format
# Assay type: toxicity, cell-based
# Parameters: dose 125 nL, time 70.5 hour; cytotoxicity at 70.5 h: concentration not given beside the values
# Settings: HepG2 cells, read-out: Inhibition
row,SMILES,cytotoxicity at 70.5 h
1,CC(NC(=O)NCCCn1cncn1)c1ccc(F)cc1 (stereo not drawn),-4.64%
2,COc1cccc(CNCC2CCN(CC(C)O)CC2)c1OC (stereo not drawn),-5.57%
3,Cc1nsc(NC(=O)NC2CCCOC2)n1 (stereo not drawn),23%
4,CCc1ncc2c(n1)CN(CC(=O)Nc1nncs1)CC2,-7.12%
5,CNC(=O)c1cn[nH]c1C1(C)CCCN(CC2(O)CCCCC2)C1 (stereo not drawn),-6.79%
6,Cc1cc(C)n(-c2cncc(NCCNC(=O)C(C)(C)C)n2)n1,-9.22%
7,O=C1NC[C@@]2(C(=O)O)CN(Cc3ccc(Oc4ccccc4)cc3)C[C@@H]12,-1.43%
8,COC(=O)c1cccc2nc([C@H]3CCN(Cc4ccccc4)C3)oc12,-11.8%
9,O=C(NCCc1nnc2n1CCC2)NCC1(c2ccc(F)cc2)CC1,-7.03%
10,CCCN1Cc2ccccc2CC1C(=O)NC (stereo not drawn),-0.114%
11,N#Cc1cn(C2CC2)c(=O)n(CC(O)c2ccc(Cl)cc2)c1=O (stereo not drawn),-3.7%
12,COc1cc(CN2CCCC2)ccc1Oc1ncccc1C(F)(F)F,28.7%
13,O=C(Cc1ccccc1Cl)Nc1ccn(CCN2CCOCC2)n1,-12.9%
14,O=C(NC1CC1)N1CCc2ncc(CN3CCOCC3)n2CC1,-16%
15,CCCN1CCCC2(CCN(Cc3cncn3C3CCCCC3)C2)C1=O (stereo not drawn),-7.64%
16,Cc1cc(C)cc(N2CCN(C(=O)CCN3C[C@@H]4CC[C@H]3C4)CC2=O)c1,-11.2%
17,CC1CN(c2cc(CNCc3cccc4c3OCCO4)ccn2)CCO1 (stereo not drawn),-10.3%
18,CN(C)CC1CN(Cc2nc(-c3cccnc3)no2)CCO1 (stereo not drawn),-12.3%
19,CC(C)CNC(=O)c1ccc2c(=O)n(-c3ccccc3)cnc2c1,-5.61%
20,Cc1cccc(N(C)S(=O)(=O)c2cc(C(=O)O)cs2)c1,14.1%
21,CCc1nc(CN2CCCC(NCc3cnn(C(C)(C)C)c3)C2)no1 (stereo not drawn),-12.7%
22,O=C(NCCc1ccsc1)c1ccoc1,5.67%
23,CSc1ncc(C(=O)N2C[C@H]3CC[C@@H]2CN(c2ncccn2)C3)cn1,24.3%

row,SMILES,cytotoxicity at 70.5 h
1,CC(NC(=O)NCCS(C)(=O)=O)c1ccc2c(c1)CCC(=O)N2 (stereo not drawn),2.87%
2,N#CC1(NC(=O)CN2CCC(c3ccnn3CCO)CC2)CCCC1,-11.9%
3,CN(CCc1ccncc1)C(=O)c1sccc1OC(F)F,-10.6%
4,c1ccc(-c2nc(CN3CCOC(Cn4cccn4)C3)co2)cc1 (stereo not drawn),4.42%
5,CCOC(=O)CCNC(=O)c1nc(OCC)ccc1Cl,-3.61%
6,CCOc1cccc(CCNC(=O)Cc2ccn[nH]2)n1,-7.14%
7,CCn1ccnc1CN1CCCC1c1c(C)nn(C)c1OC (stereo not drawn),-4.2%
8,Cc1noc(C2(C)CCN(C(=O)C(C)C)CC2)n1,-5.14%
9,O=C(c1ncccn1)N1CCC[C@]2(C[C@H](OCC3CC3)CO2)C1,-16.3%
10,Cc1cc(C)n(CC2CCCN2C(=O)c2ccc(N(C)C)nn2)n1 (stereo not drawn),-10.8%
11,O=C1CCN(C(=O)C2(c3ccc(F)cc3)CCOCC2)CCN1,-8.05%
12,Cc1ncc(CN2CC[C@@](C)(O)[C@H](Oc3cccc(F)c3)C2)cn1,14.8%
13,CNC(=O)CN1CC[C@H]2CN(C(=O)c3cc[nH]n3)C[C@H]2C1,-8.85%
14,COc1ccc(C(=O)N2CCCC2c2ccco2)cc1OC (stereo not drawn),-12.1%
15,Cc1ccc(CN(CCCn2ccnc2)Cc2cnn(C)c2)s1,25.9%
16,Cc1noc(C)c1CN1CCO[C@H]2CN(Cc3ccc(F)cc3)C[C@H]21,0.623%
17,Cc1ccc(-c2ncc(C(=O)N3CCC[C@H](N)C3)c(O)n2)cc1,-6.29%
18,Cc1cccc(OCC2CCCN(C(=O)CN(C)C3CCNCC3)C2)c1 (stereo not drawn),11.3%
19,Cc1ccc(O)c(CNC2CCCN(Cc3noc(C4CC4)n3)C2)n1 (stereo not drawn),-4.57%
20,O=C(CCCn1nnc(-c2ccc(F)cc2)n1)N1CCOCC(CO)C1 (stereo not drawn),23.7%
21,COCCN1CCO[C@H]2CN(C(=O)c3ccncc3F)C[C@H]21,-9.68%
22,COc1ccc(CCNC(C)c2ccc3[nH]c(=O)[nH]c3c2)cc1OC (stereo not drawn),3.32%
23,COc1ccc(NS(=O)(=O)CC2=NC(=O)n3cccc3C2=O)cc1Cl,-8.91%

row,SMILES,cytotoxicity at 70.5 h
1,CC(C)N(C)C(=O)c1ccc(CNc2cncc(Cl)n2)cc1,-115%
2,CC(=O)N1CCOC2(CCCN(C(=O)c3ccc(Cl)cc3)C2)C1 (stereo not drawn),-15.6%
3,CC(C)(C)n1ncc2c1NC(=O)CC2c1ccsc1 (stereo not drawn),-5.9%
4,CC(C)c1noc(C2CCN(S(=O)(=O)c3cccs3)CC2)n1,-0.463%
5,Cn1cccc1C(=O)N1CCCCC12CC(=O)N(c1cccnc1)C2 (stereo not drawn),-3.4%
6,COc1ccccc1C(C#N)NC(=O)c1cccc2c1oc(=O)n2C (stereo not drawn),-6.2%
7,CNC(=O)NCC(CO)Cc1cccc(OC(F)(F)F)c1 (stereo not drawn),-8.42%
8,O=S(=O)(c1cccc(F)c1)N1CCCCC1c1ccn[nH]1 (stereo not drawn),-7.34%
9,Cc1cccc(S(=O)(=O)N2CC[C@H]3CO[C@H](CN(C)C)[C@H]3C2)c1,-6.86%
10,OCCOc1ccc(NCc2cccnc2)cn1,24.6%
11,CCN1CCN(C(=O)NCc2ccccc2Cn2cncn2)CC1,19.4%
12,CCC(C)NC(=O)Cc1c(C)nc2c(c1C)c(=O)[nH]n2C (stereo not drawn),-8.46%
13,Oc1ccccc1-c1n[nH]c(C2CCCO2)n1 (stereo not drawn),28.5%
14,CN(C(=O)c1cccn1C)C1CCC(NC(=O)OC(C)(C)C)CC1 (stereo not drawn),-9.69%
15,c1cncc(COC[C@H]2CC[C@H]3[C@H](CCN3Cc3cccs3)O2)c1,2.81%
16,CCC(O)Cn1nc(-c2ccc(C(=O)O)cc2)cc1-c1ccc(F)cc1 (stereo not drawn),-5.44%
17,O=C1CC(N(C(=O)c2ccc3[nH]c4c(c3c2)CCCC4)C2CC2)C(=O)N1 (stereo not drawn),39.1%
18,Cc1c(-c2n[nH]c3c2CN(CC2CCOC2)CC3)cccc1C(F)(F)F (stereo not drawn),-6.06%
19,O=C(CO)N1CCCC2(CCC(=O)N(CC3CC3)C2)C1 (stereo not drawn),-11%
20,O=C(O)C(c1ccc(O)cc1)N1CCC(N2CCSCC2)CC1 (stereo not drawn),-0.773%
21,CC[C@H]1CN(C(=O)c2cccnc2)CC[C@H]1CC(=O)NC1CC1,-4.36%
22,CN(CCO)Cc1nnc(C2CCN(C(=O)c3cccnc3)CC2)n1C,-10.6%
23,Cc1noc(-c2ccc(N3CCCC(C(=O)O)C3)nc2)n1 (stereo not drawn),-3.67%

row,SMILES,cytotoxicity at 70.5 h
1,O=C(C1CCOCC1)N1CC[C@@H](O)[C@@H]1Cc1ccccc1,1.56%
2,CCn1cnnc1CNC(=O)NC(C)c1cccs1 (stereo not drawn),-14.5%
3,CCOCC1CN(Cc2cnn(C)c2)Cc2ncn(C)c21 (stereo not drawn),-9.79%
4,CN(C)C(=O)C1(CCCc2ccccn2)CCN1Cc1nccn1C (stereo not drawn),-6.27%
5,CC(C)CCN1CCc2[nH]nc(C(=O)N3CC=CC3)c2C1,-6.59%
6,Cc1nnc(NCC2(c3ccccc3)CCC2)c(C#N)c1C,2.86%
7,Cc1cc(F)c2c(c1)CCCN2S(=O)(=O)c1ncn(C)c1Cl,-0.387%
8,CCNC(=O)[C@@H]1C[C@@H](NC(=O)Cc2cc(C)no2)CN1Cc1ccsc1,-12.7%
9,Nc1nnnn1NCc1cccc(Cl)c1Cl,21.9%
10,CC(Nc1ccc(Oc2cccc(C#N)c2)cc1)C(=O)NC1CC1 (stereo not drawn),-3.83%
11,COc1c[nH]c(C(=O)Nc2nc(C(C)(C)C)cs2)cc1=O,-0.552%
12,COc1cc2cc(C(=O)O)n(C)c2cc1OC,-14.4%
13,CCN1CC(C)(C)CN(C(=O)CCc2ccccc2)CC1=O,-5.69%
14,COc1cccc(CNC(=O)C(C)n2ccnc2C(C)C)c1OC (stereo not drawn),23.8%
15,CC(=O)NCC1CCN(C(=O)NCCc2ccc3c(c2)OCO3)CC1,-17.3%
16,Cc1cc(NC(=O)c2ccc(N3CCOCC3)c(C)c2)[nH]n1,8.26%
17,Nc1cc(CCC2CN(Cc3ccc(C(=O)O)cc3)CCO2)ccn1 (stereo not drawn),23.8%
18,CCN1C(=O)C2(CCOCC2)c2cc(NC(=O)COC)ccc21,14.9%
19,OCC1(CCOc2ccccc2)CCN(c2ccc(Cl)cn2)CC1,-7.7%
20,CCN(CC)c1nc2sc(C(=O)NCC(=O)OC)cc2s1,19.9%
21,c1ccc(OC2CCCC2)c(CNC2CCc3ncnn3C2)c1 (stereo not drawn),1.21%
22,Cc1oc(-c2ccsc2)nc1CC(=O)NCCS(C)(=O)=O,-12.9%
23,CN(Cc1ccccn1)C(=O)CC1CCOc2ccccc21 (stereo not drawn),-8.29%

row,SMILES,cytotoxicity at 70.5 h
1,COC(=O)c1cccc(C(=O)N2CCN(c3ccccc3F)CC2)n1,28.8%
2,COCCN1CCN(S(=O)(=O)c2ccccc2)Cc2cccnc21,-5.54%
3,NC(=O)CC1CCN(C(=O)NCC2(c3ccccc3F)CC2)CC1,0.188%
4,Fc1ccc(-c2n[nH]cc2-c2ccnc(NCCN3CCCC3)n2)cc1,24%
5,CCn1c(C2CCNCC2)nn(Cc2ccc(C(=O)NC)o2)c1=O,-12.2%
6,Cc1cc(C)n(CC(C)CNC(=O)NCc2csc(C)n2)n1 (stereo not drawn),42.1%
7,O=C(c1ccco1)N1CCC2(CC1)C(=O)Nc1ccccc12,-9.22%
8,COc1ccccc1CNc1c(O)c(=O)c1=O,-7.01%
9,COC(=O)CC1CN(Cc2c(Cl)ccc3cccnc23)CCO1 (stereo not drawn),-12.3%
10,N#Cc1cccc(CN2CC[C@@H]3CN(c4ncccn4)CCO[C@@H]3C2)c1,21.7%
11,Cc1ccc(S(=O)(=O)N(C)c2ccsc2C(=O)NCC(C)C)cc1,45.4%
12,Cc1nc(CN2CCCC(CCc3ccc(F)cc3F)C2)c[nH]1 (stereo not drawn),-1.86%
13,O=C1NCC[C@]12CN(Cc1ccco1)C[C@H]2c1ccccc1,1.63%
14,CS(=O)(=O)N[C@@H]1COC[C@@H]2CN(Cc3ccoc3)C[C@@H]21,-11.6%
15,O=C(CC1CC1)N1CCC2(CC1)CN(c1ccsc1)C(=O)CO2,-2.64%
16,Brc1ccc(NCCCOC2CCOCC2)nc1,-1.01%
17,CC(C(=O)O)N1CC2(CCC1=O)CCN(C/C=C/c1ccccc1)CC2 (stereo not drawn),-7.03%
18,CC(C)CN1CC(c2nc(CCc3ccccc3)n[nH]2)CC1=O (stereo not drawn),-9.23%
19,O=C(NCCN1CCNC1=O)c1cc(-c2ccc(O)cc2)n[nH]1,-10.9%
20,Nc1nc2c(c(N3CCCC(OCc4ccccn4)C3)n1)CCNCC2 (stereo not drawn),-6.98%
21,CCOC(=O)c1coc(N2CCC(N3CCC(O)CC3)CC2)n1,-7.59%
